The record followed here is patent publication US20070031507A1, “Bactericide for MRSA” (priority 2001, published 2007).

The assay relates to MRSA (methicillin resistant Staphylococcus aureus). Nature of the assay: Antibacterial test: survival ratio of MRSA versus cultivation time in medium. In kind it is cell-based. The settings on record: physiological saline, dilution 10^-3, pH 12.7. On the procedure: Antibacterial tests were then performed. The relation between the cultivation time (minute) of MRSA in a cultivation medium and the survival ratio (%) of the bacteria was measured in the test shown in Table 1. The cultivation media of MRSA were physiological saline ([…]), physiological saline containing the bactericide for MRSA of the invention ([…]) and physiological saline containing a reagent NaOH (medium 3). The degree of dilution of both the bactericide for MRSA and the reagent (NaOH) was 10^−3, and pH of both solutions was 12.7.

Consider `[Na+].[OH-]` [Medium 3, NaOH], for which the “survival ratio of the bacteria” value (cultivation time 0 minutes) is listed as 100%, the “survival ratio of the bacteria” value (cultivation time 15 minutes) is “Measurement was impossible” and the “survival ratio of the bacteria” value (cultivation time 30 minutes) is 0.0057%.
